Data as given in PMC4080980, “The pharmacokinetics of anthocyanins and their metabolites in humans” (British Journal of Pharmacology, 2014).
Marks after values point to notes of the source that are not given here.

Columns and labels:
[1] = test system: LPS-induced RAW 264.7 cells; parameters: method as in Min et al., 2010; conditions: ref Min et al., 2010; cited from earlier work
[2] = test system: vascular cell adhesion molecule-1 (VCAM-1); parameters: method as in Wang et al., 2010; conditions: TNF-α-induced mouse aortic endothelial cells; ref Wang et al., 2010; cited from earlier work
[3] = test system: plasma VCAM-1; parameters: method as in Wang et al., 2010; conditions: mice fed PCA; ref Wang et al., 2010; cited from earlier work
[4] = Serum pharmacokinetics after 500 mg oral bolus of 13C5-C3G (HPLC-ESI-MS/MS, non-compartmental analysis); type: in vivo, humans; conditions: for Cmax: healthy men, mean ± SEM of participants in whom detected; for AUC(0-t): read-out: AUC0-48
Procedure: (§1) A detailed description of the clinical design was previously published ([Czank et al., 2013]). Briefly, a single 500 mg oral bolus dose of isotopically labelled C3G (^13C5-C3G) was fed to eight healthy male participants (body mass index, 18.5–30.5 kg·m^–2; aged 18–45 years) after an overnight fast (>8 h). Participants provided blood (baseline, 0.5, 1, 2, 4, 6, 24, 48 h), urine (individual voids between 0 and 6 h, total voids between 6–24 and 24–48 h), breath (baseline, 0.5, 1, 2, 4, 6, 24, 48 h) and faecal samples (all voids between 0–6, 6–24 and 24–48 h). The study was conducted at the Clinical Research and Trials Unit at the University of East Anglia according to the principles expressed in the Declaration of Helsinki and was approved by the Cambridgeshire 3 Research Ethics Committee (REC ref: 10/H0306/42) and registered at clinicaltrials.gov as NCT01106729.
(§2) Serum, urine and faecal samples were extracted by SPE and analysed by HPLC-ESI-MS/MS as recently described ([Czank et al., 2013]). The extraction efficiency was established as 87 ± 11% (coefficient of variation, CV; 6.8 ± 0.7%) for serum, 88 ± 18% (CV, 7.9 ± 0.8%) for urine and 81 ± 21% (CV, 14.1 ± 1.2%) for faeces (n = 3 replicates for each analyte). Sample extracts (5 μL) were injected onto a Kinetex PFP column (Phenomonex) and separated using an Agilent 1200 series HPLC with a QTrap 4000 linear ion trap mass spectrometer (ABSciex, Warrington, UK). […] Metabolite identification was performed by multiple reaction monitoring (MRM) optimized for the detection of pure standards with m/z of the parent and daughter fragments adjusted to +2,+3,+5 amu to allow identification of the ^13C-labelled metabolites derived from the B-ring, A-ring or the parent structure respectively. Metabolites were confirmed on the basis of retention time (using authentic and synthesized standards where possible) and three or more ion transitions. The HPLC-ESI-MS/MS method was validated for linearity and precision across all metabolites. Six point standard curves ranging from 1.25 to 20 μM were constructed from analytical standards and injected six times. The precision was established as 1.4–11.0% and linearity of the standard curves was established as r^2 = 0.991–1.000 (CV, 0.2%) across the identified metabolites.
(§3) Pharmacokinetic modelling of metabolites in the serum was performed with the PKSolver ‘add-on’ for Excel 2010 (Microsoft, […], USA) ([Zhang et al., 2010]) using non-compartmental analysis with the AUC calculated using the trapezoidal rule. Pharmacokinetic parameters were established for each individual analyte and presented as mean ± SEM. Urine samples collected during the first 6 h post-bolus were grouped together to the nearest hour time point (i.e. samples were not pooled but individual concentrations were averaged post-quantification) for graphical representation and to calculate total cumulative recovery. The concentration of metabolites was converted to amount recovered from urine by accounting for the molecular weight of the individual ^13C-labelled metabolites and the volume of the individual participants void and averaged across participants. Recovery of metabolites in the faeces was established from the molecular weight of the ^13C-labelled metabolite and the weight of the individual participants void adjusting for faecal water content as previously described ([Czank et al., 2013]). Urine and faecal recovery amounts are presented as mean ± SEM (n = 8), unless otherwise stated.

[5] = Faecal recovery after 500 mg oral bolus of 13C5-C3G; type: in vivo, humans; conditions: faeces, 500 mg oral 13C5-C3G, mean ± SEM
Procedure: The study was conducted at the Clinical Research and Trials Unit at the University of East Anglia according to the principles expressed in the Declaration of Helsinki and was approved by the Cambridgeshire 3 Research Ethics Committee (REC ref: 10/H0306/42) and registered at clinicaltrials.gov as NCT01106729.
Sample extracts (5 μL) were injected onto a Kinetex PFP column (Phenomonex) and separated using an Agilent 1200 series HPLC with a QTrap 4000 linear ion trap mass spectrometer (ABSciex, Warrington, UK). […] Metabolite identification was performed by multiple reaction monitoring (MRM) optimized for the detection of pure standards with m/z of the parent and daughter fragments adjusted to +2,+3,+5 amu to allow identification of the ^13C-labelled metabolites derived from the B-ring, A-ring or the parent structure respectively. […] The HPLC-ESI-MS/MS method was validated for linearity and precision across all metabolites.
Pharmacokinetic parameters were established for each individual analyte and presented as mean ± SEM. Urine samples collected during the first 6 h post-bolus were grouped together to the nearest hour time point (i.e. samples were not pooled but individual concentrations were averaged post-quantification) for graphical representation and to calculate total cumulative recovery. The concentration of metabolites was converted to amount recovered from urine by accounting for the molecular weight of the individual ^13C-labelled metabolites and the volume of the individual participants void and averaged across participants. […] Urine and faecal recovery amounts are presented as mean ± SEM (n = 8), unless otherwise stated.

[6] = Urinary elimination/recovery after 500 mg oral bolus of 13C5-C3G; type: in vivo, humans; conditions: urine, single 500 mg oral 13C5-C3G; for Tmax: male, human, po, 500 mg, urine collection interval, read-out: Time at maximum concentration; for Total recovery: 0-48 h; for Total recovery / Maximum concentration: mean ± SEM
Procedure: as §1, §2, §3

[7] = test system: plasma IL-6; parameters: method as in Kim et al., 2010; conditions: vanillic acid fed mice; ref Kim et al., 2010; cited from earlier work
[8] = parameters: method as in Czank et al., 2013; conditions: ref Czank et al., 2013, cited from earlier work
[9] = male, human, serum, po, 500 mg, serum elimination half-life, single 500 mg oral 13C5-C3G, mean ± SEM
[10] = male, human, serum, po, 500 mg, serum, single 500 mg oral 13C5-C3G, mean ± SEM, read-out: tmax
[11] = male, human, serum, po, 500 mg, single 500 mg oral 13C5-C3G
[12] = male, human, serum, trapezoidal rule, single 500 mg oral 13C5-C3G, mean ± SEM
[13] = serum, single 500 mg oral 13C5-C3G

Row | Structure (SMILES) | half-life [4, 9] [h] | Tmax [4, 10] [h] | Cmax [4, 11] [µM] | AUC(0-t) [4, 12] [nM·h] | Recovery 6–24 h [5] | Recovery 24–48 h [5] | Tmax [6] [h] | Total recovery [6] [µg] | Maximum concentration [6] [nM] | Cmax [4, 13] [µM] | other results
1 | O=C(O)c1ccc(O)c(O)c1 [Protocatechuic acid (PCA), Protocatechuic acid] | 9.9 ± 3.4 | 3.3 ± 0.7 | 0.147 | 1380 ± 760 | 360.9 ± 278.1 ^c μg | 221.8 ± 134.9 ^d μg | 1 to 2 | 71.6 ± 20.9 | 337 ± 117 | 0.146 ± 0.074 | production of TNF-α, IL-1β, NO, PGE2 and gene expression of NOS and COX-2 [1]: suppress; VCAM-1 protein and mRNA [2]: reduce; plasma VCAM-1 levels [3]: reduced; Recovery 6–24 h ([5]; listed as PCA): 360.9 µg
2 | O=C(O)c1ccc(OC2OC(C(=O)O)C(O)C(O)C2O)c(O)c1 (stereo not shown) [PCA-4-glucuronide] |  |  |  |  | 16.1 ± 17.5 µg | 20.4 ± 16.2 ^i μg |  | 100.3 ± 30.2 | 233 ± 65 | 0.068 ± 0.061 | t1/2 ([4]; serum elimination half-life, single 500 mg oral 13C5-C3G, mean ± SEM): 19.4 ± 3.1 h; Tmax ([4]; serum, single 500 mg oral 13C5-C3G, mean ± SEM): 3.8 ± 0.8 h; AUC0-48 ([4]; serum, trapezoidal rule, single 500 mg oral 13C5-C3G, mean ± SEM): 618 ± 489 nM·h
3 | O=C(O)c1ccc(O)c(OC2OC(C(=O)O)C(O)C(O)C2O)c1 (stereo not shown) [PCA-3-glucuronide] | 18 ± 15.6 | 2.7 ± 1 | 0.011 ± 0.003 | 60 ± 38 | 22.9 ± 22.0 ^g μg | 49.0 ^b μg | 1 to 2 | 197.7 ± 41.2 | 301 ± 72 |  | 
4 | OCC1OC(Oc2cc3c(O)cc(O)cc3[o+]c2-c2ccc(O)c(O)c2)C(O)C(O)C1O (stereo not shown) [Cyanidin-3-glucoside, 6,8,10,3′,5′-^13C5-cyanidin-3-glucoside] | 0.4 | 1.8 ± 0.2 | 0.141 ± 0.07 | 279 ± 170 | 70.0 ^b μg | 19.6 ^b μg | 1 to 2 | 120.0 ± 54.1 | 334 ± 145 |  | relative bioavailability ([8]; based on recovery of the 13C-label in urine and breath): 12.4 ± 1.4%; recovered 13C-label in faeces [8]: 32 ± 6%; recovery of the initial dose of 13C within the urine sample [8]: 12%; share of the total metabolites found in the circulation ([4]; serum, 500 mg oral 13C5-C3G): 2%

Now from value to molecule, other results behind:

Row | half-life [4, 9] [h] | Tmax [4, 10] [h] | Cmax [4, 11] [µM] | AUC(0-t) [4, 12] [nM·h] | Recovery 6–24 h [5] | Recovery 24–48 h [5] | Tmax [6] [h] | Total recovery [6] [µg] | Maximum concentration [6] [nM] | Structure (SMILES) | Cmax [4, 13] [µM] | other results
5 |  | 2.8 ± 1.1 | 0.582 ± 0.536 | 7880 ± 7770 | 2.1 ± 1.3 ^e μg | 111.3 ± 78.7 ^f μg | 6 to 24 | 66.7 ± 21.3 | 170 ± 42 | O=Cc1c(O)cc(O)cc1O [Phloroglucinaldehyde] |  | 
6 | 6.4 | 12.5 ± 11.5 | 1.84 ± 0.838 |  | 54.7 ± 1.6 ^h μg | 49.3 ± 21.4 ^g μg | 1 to 2 | 960.4 ± 350.0 | 3412 ± 312 | COc1cc(C(=O)O)ccc1O [Vanillic acid (VA), Vanillic acid] |  | plasma IL-6 [7]: reductions
